Experiment [1] addresses T1, human thyroid hormone receptors TRβ1 (Homo sapiens, UniProt P10828).
T1 construct: made in house; host or cells: Sf9 insect cells (baculovirus)
T1 sequence (P10828 1-461): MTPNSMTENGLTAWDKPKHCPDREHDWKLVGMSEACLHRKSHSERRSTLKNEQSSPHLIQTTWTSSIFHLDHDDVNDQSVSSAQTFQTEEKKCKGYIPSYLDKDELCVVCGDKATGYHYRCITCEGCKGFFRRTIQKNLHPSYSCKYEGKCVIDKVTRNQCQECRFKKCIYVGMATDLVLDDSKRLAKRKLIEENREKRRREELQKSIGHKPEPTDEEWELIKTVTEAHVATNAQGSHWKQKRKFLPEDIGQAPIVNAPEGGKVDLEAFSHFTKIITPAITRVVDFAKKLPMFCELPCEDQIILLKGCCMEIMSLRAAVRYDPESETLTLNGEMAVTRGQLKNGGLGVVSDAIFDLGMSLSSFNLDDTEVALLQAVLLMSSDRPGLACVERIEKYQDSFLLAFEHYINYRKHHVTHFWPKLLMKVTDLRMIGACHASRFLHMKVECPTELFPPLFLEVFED
T1 sequence (P19793 1-462 partner): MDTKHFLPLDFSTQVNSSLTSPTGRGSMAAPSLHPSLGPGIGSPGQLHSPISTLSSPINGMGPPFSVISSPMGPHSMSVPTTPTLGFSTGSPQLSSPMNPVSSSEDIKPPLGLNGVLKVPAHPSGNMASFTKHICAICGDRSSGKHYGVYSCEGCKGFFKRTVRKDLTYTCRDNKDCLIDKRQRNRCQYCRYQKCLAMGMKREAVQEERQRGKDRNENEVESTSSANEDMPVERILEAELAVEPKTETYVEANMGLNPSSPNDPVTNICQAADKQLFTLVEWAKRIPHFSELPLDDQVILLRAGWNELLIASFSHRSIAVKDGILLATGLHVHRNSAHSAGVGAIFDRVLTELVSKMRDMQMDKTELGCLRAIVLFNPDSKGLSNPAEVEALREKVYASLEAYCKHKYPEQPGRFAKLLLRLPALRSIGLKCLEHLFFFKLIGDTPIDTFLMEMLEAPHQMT
The experiment in a line: Receptor binding to TRβ1 (gel filtration and scintillation proximity assay, labeled T3). Particulars: read-out: Ki TRβ. The procedure: (§1) Methods: Baculoviruses expressing TRα1, TRβ1 and RXRα were generated using cDNA and other reagents from Invitrogen (Carlsbad, Calif.). To produce TR/RXR heterodimer proteins, the sf9 insect cells were first grown to a density of 1-5×10^5 cells/mL. […] and RXRα baculovirus stocks were added to the cell culture with a ratio of 1 to 1 (multiplicity of infection=10). The cells were harvested three days after the infection.
(§2) Binding of compounds to either the TRα1 or TRβ1 were also performed by means of scintillation proximity assays (SPA). The SPA assay, a common method used for the quantitation of receptor-ligand equilibria, makes use of special beads coated with a scintillant and a capture molecule, copper, which binds to the histidine-tagged α or β receptor.
(In general: SEC sorts molecules by how far they enter the pores of the column.)

For experiment [2], the target named is T2, human thyroid hormone receptors TRα1 (Homo sapiens, UniProt P10827).
T2 construct: made in house; host or cells: Sf9 insect cells (baculovirus)
T2 sequence (P10827 1-410 isoform P10827-2): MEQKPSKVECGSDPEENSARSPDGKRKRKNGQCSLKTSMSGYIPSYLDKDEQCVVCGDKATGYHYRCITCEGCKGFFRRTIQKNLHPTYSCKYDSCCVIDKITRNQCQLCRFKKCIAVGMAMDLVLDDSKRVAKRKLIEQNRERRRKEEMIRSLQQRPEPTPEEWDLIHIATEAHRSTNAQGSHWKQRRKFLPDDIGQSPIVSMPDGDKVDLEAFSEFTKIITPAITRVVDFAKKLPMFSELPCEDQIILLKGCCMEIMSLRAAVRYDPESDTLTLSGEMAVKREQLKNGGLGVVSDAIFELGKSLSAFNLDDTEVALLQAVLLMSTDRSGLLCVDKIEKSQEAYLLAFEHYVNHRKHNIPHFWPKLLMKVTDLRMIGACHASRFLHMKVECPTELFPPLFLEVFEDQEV
T2 sequence (P19793 1-462 partner): T1 sequence (P19793 1-462 partner)
In words: Receptor binding to TRα1 (gel filtration and scintillation proximity assay, labeled T3). Particulars: read-out: Ki TRα. The procedure: as §1, §2

Each structure is given as a SMILES string. Like-named read-outs stand apart in the source and are kept apart here.

Broadly, the Ki is the dissociation constant of the complex between target and ligand, obtained from inhibition or displacement. On to `Cc1cc(CC(=O)CP(=O)(O)O)cc(C)c1Oc1ccc(O)c(C(C)C)c1` [Compound 32, 3-[3,5-dimethyl-4-(4′-hydroxy-3′-iso-propylphenoxy)]phenyl-2-oxopropylphosphonic acid], for which the values for the Ki in experiment [1] (SPA data) and in experiment [2] (SPA data) were 96 nM and 284 nM, respectively.
As for `Cc1cc(SCP(=O)(O)O)cc(C)c1Oc1ccc(O)c(C(C)C)c1` [Compound 54, [3,5-Dimethyl-4-(4′-hydroxy-3′-iso-propylphenoxy)benzenesulfanyl]methylphosphonic acid], the Ki stood at 42 nM in experiment [1] and 143 nM in experiment [2].
For the compound `COc1cc(OCP(=O)(O)O)cc(OC)c1Cc1ccc(O)c(C(C)C)c1` [Compound 7-2, [3,5-dimethoxy-4-(4′-hydroxy-3′-iso-propylbenzyl)phenoxy]methylphosphonic acid], the Ki was 146 nM in experiment [1] and greater than 2000 nM in experiment [2] (SPA data).
`Cc1cc(OCP(=O)(O)O)cc(C)c1Cc1ccc(O)c(C(=O)c2ccc(F)cc2)c1` [Compound 39, [3,5-dimethyl-4-[3′-(4-fluoro-benzoyl)-4′-hydroxy-benzyl]phenoxy]methylphosphonic acid]: the Ki in experiment [1] (SPA data) was 58 nM; in experiment [2] (SPA data), greater than 2000 nM.
For the compound `Cc1cc(C(=O)NCP(=O)(O)O)cc(C)c1Oc1ccc(O)c(C(C)C)c1` [Compound 23, N-[3,5-dimethyl-4-(4′-hydroxy-3′-iso-propylphenoxy)benzamido]methyl phosphonic acid], the Ki in experiment [1] (SPA data) and in experiment [2] (SPA data) was greater than 2000 nM throughout.
Regarding `Cc1cc(OC[P@]2(=O)OCC[C@@H](c3cccc(F)c3)O2)cc(C)c1Cc1ccc(O)c(C(C)C)c1` [Compound 13-3-trans], the Ki in experiment [1] (SPA data) is 2460 nM; in experiment [2] (SPA data) it was 2010 nM.
With `Cc1cc(OCP(=O)(O)O)cc(C)c1Cc1ccc(O)c(S(=O)(=O)C(C)C)c1` [Compound 44, [3,5-dimethyl-4-[4′-hydroxy-3′-(iso-propylsulfonyl)benzyl]phenoxy]methylphosphonic acid], the figures for the Ki in experiment [1] (SPA data) and in experiment [2] (SPA data) were 44 nM and 832 nM, respectively.
The corresponding values for `COc1ccc(Oc2c(C)cc(CCP(=O)(O)O)cc2C)cc1C(C)C` [Compound 30, 2-[3,5-dimethyl-4-(3′-iso-propyl-4′-methoxyphenoxy)phenyl]ethylphosphonic acid] are greater than 2000 nM and greater than 2000 nM.
In the same order, the values of `Cc1cc(OC[P@]2(=O)OCC[C@@H](c3ccc(Cl)cc3)O2)cc(C)c1Cc1ccc(O)c(C(C)C)c1` [Compound 13-6-trans, 2-[(3,5-dimethyl-4-(4′-hydroxy-3′-iso-propylbenzyl)phenoxy)methyl]-4-(4-chlorophenyl)-2-oxo-2λ^5-[1,3,2]-dioxaphosphonane] are 1570 nM and 1530 nM.
In the same order, the values of `Cc1cc(OC[P@]2(=O)OCC[C@@H](c3cccc(Br)c3)O2)cc(C)c1Cc1ccc(O)c(C(C)C)c1` [Compound 13-2-trans, 2-[(3,5-dimethyl-4-(4′-hydroxy-3′-iso-propylbenzyl)phenoxy)methyl]-4-(3-bromophenyl)-2-oxo-2λ^5-[1,3,2]-diox aphosphonane] are 469 nM and 1350 nM.
For `CC(C)c1cc(Cc2c(Cl)cc(OCP(=O)(O)O)cc2Cl)ccc1O` [Compound 7-5, [3,5-dichloro-4-(4′-hydroxy-3′-iso-propylbenzyl)phenoxy]methylphosphonic acid], the Ki in experiment [1] (SPA data) amounted to 9.5 nM; in experiment [2] (SPA data) it was 67 nM.
In the same order, the values of `Cc1cc(OC[P@@]2(=O)OCC[C@@H](c3cc(Cl)cc(Cl)c3)O2)cc(C)c1Cc1ccc(O)c(C(C)C)c1` [Compound 13-7-cis] are 45100 nM and 49600 nM.
As to `NC(Cc1cc(I)c(Oc2ccc(O)c(I)c2)c(I)c1)P(=O)(O)O` (centres unmarked) [Compound 2, 1-amino-2-[3,5-diiodo-4-(4′-hydroxy-3′-iodophenoxy)phenyl]ethylphosphonic acid], the Ki was determined as 271 nM in experiment [1] and 1420 nM in experiment [2].

Values taken from US20090028925A1, “Novel Phosphinic Acid-Containing Thyromimetics” (priority 2005, published 2009).
